Measured values published in USRE42890E1, “Furazanobenzimidazoles” (Basilea Pharmaceutica AG, priority 2003, dated 2011).

Key:
[1] = system: HT1080; test: MTS proliferation assay, HT1080; type: cell-based, human; conditions: HT1080, 72 h incubation; read-out: MTS proliferation assay IC 50 HT1080
Method: Cell lines are cultured in RPMI-1640 tissue culture medium containing either 5% or 10% fetal calf serum, 0.05 mM 2-mercaptoethanol, 2 mM glutamine and penicillin/streptomycin 50 μg/ml (complete medium) (Sigma, Buchs, Switzerland). General growth conditions are 37° C. and 7.5% CO2.
The following human cell lines (either EGFP transfected or not) are being used: HeLa (ATCC: CCL-2), KB (ATCC: CCL-17), MCF7 (ATCC: HTB-22), SK-BR-3 (ATCC: HTB-30), SK-Mel 1 (ATCC: HTB-67), SK-Mel 28 (ATCC: HTB-72), PC-3 (ATCC: CRL-1435), SW 480 (ATCC: CCL-228), NCl-H460 (ATCC: HTB-177), NCl-H1792 (ATCC: CRL-5895), HT1080 (ATCC: CCL-21), Jurkat (ATCC: TIB-152), Ramos (ATCC: CRL-1596), Raji (ATCC: CCL-86), H9 (ATCC: HTB-176), Hut78 (ATCC: TIB-161), K562 (ATCC: CCL 243), HL-60 (ATCC: CCL 240), U-87MG (ATCC: HTB-14), HepG2 (ATCC: HB-8065), U-2 OS (ATCC: HTB-96), Saos-2 (ATCC: HTB-85), U937 (ATCC: CRL 1593), Hs 578T (ATCC: HTB 126), HBL-100 (ATCC: HTB 124), Molt-4 (ATCC: CRL 1582).
The assay is performed in 96 well tissue culture plates. The cells (range: 1.5*10^3-10^4) are seeded out in 80 μl complete medium 24 h prior to compound treatment. The test compounds are added in 20 μl complete medium containing max 5% DMSO. The final compound concentrations in the assays are 10 μM, 3 μM, 1 μM and 0.3 μM, respectively. The assay plates are incubated for 72 h at culture conditions. The MTS reagent is prepared according to the manufacturer's protocol (Promega G1111). 20 μl MTS reagent are added to each well, the assay plates are quickly spun and incubated for another 3 h at culture conditions. Subsequently, the plates are shortly shaked and absorption measured with a microplate-reader at 492 nm.

[2] = system: adherent cells or suspension cells; test: Hoechst 33342 nuclear staining (fraction of apoptotic nuclei); type: cell-based; parameters: key: 0 relating to no activity; 1 relating to weak activity comprising less than 70% of the cells; score 2 relating to strong activity comprising more than 70% of the cells
[3] = system: HeLa; test: MTS proliferation assay, HeLa; type: cell-based, human; conditions: 72 h incubation, read-out: MTS proliferation assay IC 50 HeLa
Summary of the method: (§1)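 Human lines, EGFP-transfected or not, grow in RPMI-1640 plus 5% or 10% FCS and 2-mercaptoethanol. They receive test compound for 72 h at final concentrations of 10, 3, 1 and 0.3 μM, and MTS conversion is measured at 492 nm.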

[4] = system: Jurkat; test: MTS proliferation assay, Jurkat; type: cell-based, human; conditions: 72 h incubation, read-out: MTS proliferation assay IC 50 Jurkat
Summary of the method: as §1

[5] = system: MRC5; test: MTS proliferation assay, MRC5; type: cell-based; conditions: MRC5, 72 h incubation; read-out: MTS proliferation assay IC 50 MRC5
Summary of the method: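 Seed cells in complete RPMI-1640 medium and allow 24 h attachment. Add compounds to final 10 μM, 3 μM, 1 μM or 0.3 μM and incubate 72 h at 37° C. Add MTS, incubate 3 h more, then measure absorption at 492 nm.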

Row | IC50 [1] | IC50 [3] | Compound | Hoechst 33342 nuclear staining score ([2]; H460, conc 0.01 μm) | Hoechst 33342 nuclear staining score ([2]; H460, conc 0.1 μm) | Hoechst 33342 nuclear staining score ([2]; H460, conc 1 μm) | Hoechst 33342 nuclear staining score ([2]; HeLa, conc 0.01 μm) | Hoechst 33342 nuclear staining score ([2]; HeLa, conc 0.1 μm) | Hoechst 33342 nuclear staining score ([2]; HeLa, conc 1 μm) | Hoechst 33342 nuclear staining score ([2]; Jily, conc 0.01 μm) | Hoechst 33342 nuclear staining score ([2]; Jily, conc 0.1 μm) | Hoechst 33342 nuclear staining score ([2]; Jily, conc 1 μm) | Hoechst 33342 nuclear staining score ([2]; Jurkat, conc 0.01 μm) | Hoechst 33342 nuclear staining score ([2]; Jurkat, conc 0.1 μm) | Hoechst 33342 nuclear staining score ([2]; Jurkat, conc 1 μm) | Hoechst 33342 nuclear staining score ([2]; MRC5, conc 0.01 μm) | Hoechst 33342 nuclear staining score ([2]; MRC5, conc 0.1 μm) | Hoechst 33342 nuclear staining score ([2]; MRC5, conc 1 μm) | Hoechst 33342 nuclear staining score ([2]; PBLs, conc 0.01 μm) | Hoechst 33342 nuclear staining score ([2]; PBLs, conc 0.1 μm) | Hoechst 33342 nuclear staining score ([2]; PBLs, conc 1 μm) | also measured
1 | > 1 µM | > 1 µM | N#Cc1ccc(C(=O)Cn2c(-c3nonc3N)nc3ccccc32)cc1 [Example 63] | 0 | 0 | 0 | 0 | 0 | 0 | 0 | 0 | 0 | 0 | 0 | 0 | 0 | 0 | 0 | 0 | 0 | 0 | IC50 [4]: > 1 µM; IC50 [5]: > 1 µM
2 | > 1 µM | > 1 µM | Cc1cc2nc(-c3nonc3N)n(CC(=O)c3ccc(-c4ccccc4)cc3)c2cc1C [Example 112] | 0 | 0 | 0 | 0 | 0 | 0 | 0 | 0 | 0 | 0 | 0 | 0 | 0 | 0 | 0 | 0 | 0 | 0 | IC50 [4]: > 1 µM; IC50 [5]: > 1 µM
3 | > 1 µM | > 1 µM | COc1cc2nc(-c3nonc3N)n(CC(=O)c3ccc(Br)cc3)c2cc1OC [Example 115] | 0 | 0 | 0 | 0 | 0 | 0 | 0 | 0 | 0 | 0 | 0 | 0 | 0 | 0 | 0 | 0 | 0 | 0 | IC50 [4]: > 1 µM; IC50 [5]: > 1 µM
4 | > 1 µM | > 1 µM | COc1ccc(C(=O)Cn2c(-c3nonc3N)nc3cc(OC)c(OC)cc32)cc1 [Example 116] | 0 | 0 | 0 | 0 | 0 | 0 | 0 | 0 | 0 | 0 | 0 | 0 | 0 | 0 | 0 | 0 | 0 | 0 | IC50 [4]: > 1 µM; IC50 [5]: > 1 µM
